The values that follow come from patent US11746103B2, “ALK-5 inhibitors and uses thereof” (Sumitomo Pharma Oncology, Inc., priority 2020, dated 2023).

As a reminder, the inhibition is the share of the control response that was lost under treatment.

Test [1] addresses ALK-5 (Homo sapiens (Human), UniProt P36897). In words: LanthaScreen Eu Kinase Binding Assay, ALK-5. The conditions noted are these: for IC50: read-out: Kinase Inhibition: ALK5 IC50. A digest of the protocol:
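TR-FRET binding assay: compound displaces an ATP-site-directed Alexa Fluor tracer from kinase detected by Eu-labelled anti-tag antibody, lowering FRET. 10-point, 3-fold serial dilutions, 60 min incubation at room temperature, read without development step. Dose-response curves fitted.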
In general terms: In TR-FRET formats the signal depends on donor and acceptor labels being close together.

The test system of test [2] is TGF-beta induced SMAD signaling. In words: RDSR (RD SMAD reporter) Cellular Reporter Assay. The test is classed as cell-based. Particulars: Homo sapiens; 200 pg/ml rhTGF-beta1, 24 h; read-out: RD-SMAD reporter activity. A digest of the protocol: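 Human rhabdomyosarcoma RD cells stably carrying an SBE-driven luc2P luciferase reporter. Inhibition of SMAD signaling was quantified from ONE-Glo luminescence.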

The test system of test [3] is phospho-SMAD2 (Ser 465/467) in A549 xenograft. In words: A549 xenograft study, tumor phospho SMAD2. The test is classed as in vivo, mouse. The conditions noted are these: for phospho SMAD2 levels in tumor (normalized to GAPDH): 10, 50, 75, 100 mg/Kg; for inhibition at 10 mg/kg / inhibition at 50 mg/kg / inhibition at 75 mg/kg / inhibition at 100 mg/kg: Mus musculus, A549, oral gavage, 3 hours after administration, read-out: Percent of p-SMAD2 inhibition compared to vehicle control. The text has this: To test compounds for in vivo on-target activity (ALK5/TGF-βR1 inhibition), a study was completed using an A549 murine xenograft model. This model was utilized since an ALK5 inhibitor is expected to reduce the amount of the key TGF-β signaling molecule phosphoSMAD2 in the A549 xenograft cells. The TGF-β mediated phosphorylation in A549 cells takes place at amino acid residue four hundred and sixty-five and four hundred and sixty-seven (both are serine residues).
Eight-week old, female athymic nude mice (Charles River) were injected with approximately four million A549 cells (ATCC, CCL-185). The cells employed were harvested and resuspended in plain RPMI media (no phenol red added) and matrigel (Fisher Scientific) at a one to one ratio. Injection comprised a two-hundred microliter sample injected into the right hind flank of each mouse. Resulting tumors were measured every three days by caliper and as tumors reached an average of one hundred and thirty millimeters cubed, mice were randomized in groups of three.
All compounds were resuspended in 1-Methyl-2-pyrrolidinone (10%) plus 20% Solutol in water (90%). Galunisertib was included as a positive control and given at seventy-five milligram per kilogram to three mice. The drug suspensions were sonicated for fifteen minutes to generate a fine particle suspension before being administered to a subject. Mice were dosed (per oral gavage) at dose levels of one hundred mg/Kg, seventy-five mg/Kg, fifty mg/Kg and ten mg/Kg with three mice in each group. A vehicle control group with three mice was used to establish the baseline level of phospho SMAD2 in the tumor xenograft. Three hours after drug administration, tumors were harvested and stored at negative eighty degrees Celsius until further processing. The phospho SMAD2 levels were determined using the BioPlex Pro anti phospho-SMAD2 (Ser 465/467) beads from Biorad and this signal was normalized using GAPDH levels from each sample (Milliplex MAP GAPDH beads, Sigma/Millipore). Tumors were processed according to kit instructions and beads analyzed using the MagPix instrument by Luminex.

Chain of ALK-5 (P36897 34-503): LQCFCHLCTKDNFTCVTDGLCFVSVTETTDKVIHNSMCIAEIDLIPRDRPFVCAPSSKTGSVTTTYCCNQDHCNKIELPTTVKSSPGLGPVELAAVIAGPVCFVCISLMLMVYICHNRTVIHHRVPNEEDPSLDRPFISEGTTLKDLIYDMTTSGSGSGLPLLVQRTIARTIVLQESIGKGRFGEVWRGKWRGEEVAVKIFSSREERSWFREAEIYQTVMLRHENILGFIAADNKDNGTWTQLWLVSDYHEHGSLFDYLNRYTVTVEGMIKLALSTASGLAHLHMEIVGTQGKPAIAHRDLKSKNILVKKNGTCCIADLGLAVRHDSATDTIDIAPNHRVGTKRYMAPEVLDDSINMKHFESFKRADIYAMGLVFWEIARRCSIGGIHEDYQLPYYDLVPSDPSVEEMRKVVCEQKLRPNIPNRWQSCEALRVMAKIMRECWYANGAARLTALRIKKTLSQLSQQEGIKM

For the compound `Cc1cccc2c(Nc3ccnc(Nc4ccc(N5CCOCC5)cc4)n3)cnnc12` [EX-10, N4-(8-methylcinnolin-4-yl)-N2-(4-morpholino-phenyl)-pyrimidine-2,4-diamine], in test [1], the “Kinase Selectivity: ALK2 IC50/ ALK5 IC50” value was “(++) (10<ALK2/ALK5<100=[++])” and the IC50 was below 10 nM. Further, the IC50 in test [2] is below 100 nM. In addition, in test [3], the “phospho SMAD2 levels in tumor (normalized to GAPDH)” value is “reduced the phopho SMAD2 levels (p-SMAD2) in a dose dependent fashion”, the inhibition at 10 mg/kg was 33.5%, the inhibition at 50 mg/kg was 78.3% and the inhibition at 100 mg/kg was 84.8%. Also, the inhibition at 75 mg/kg in test [3] (75 mg/Kg) was 74.8%.

`Cc1cccc2c(Nc3ccnc(Nc4cccc(N5CCOCC5)c4)n3)cnnc12` [EX-11, N4-(8-methylcinnolin-4-yl)-N2-(3-morpholinophenyl)pyrimidine-2,4-diamine]: in test [1], the “Kinase Selectivity: ALK2 IC50/ ALK5 IC50” value was “(++) (10<ALK2/ALK5<100=[++])” and the IC50 was below 10 nM. In addition, the IC50 in test [2] is below 100 nM. Also, in test [3] (75 mg/Kg), the “observed level of p-SMAD2 as percent of vehicle-only group” value is recorded as 7.5% and the inhibition at 75 mg/kg came to 92.5%. In addition, in test [3], the “phospho SMAD2 levels in tumor (normalized to GAPDH)” value was “reduced the phopho SMAD2 levels (p-SMAD2) in a dose dependent fashion”, the inhibition at 10 mg/kg stood at 32.6%, the inhibition at 50 mg/kg was determined as 87.6% and the inhibition at 100 mg/kg was determined as 90.1%.
